Measurements as given in US5648354A, “1,2-dithiins having antifungal activity” (Shaman Pharmaceuticals, Inc., priority 1995, dated 1997).
Values after ≈ are worked out from the molar mass of the structure shown.

Legend:
Assay in all cases: In vitro antifungal activity (minimum inhibitory concentration)
Assay type in all cases: cell-based
[1] = tested on: Aspergillus fumigatus ATCC13073; details: read-out: Minimum Inhibitory Concentration (MIC) AF
Protocol: (§1) The antifungal activities of representative 1,2-dithiin compounds listed below were determined in vitro using three fungal cultures: Candida albicans ATCC10259 (CA), Cryptococcus neoformans ATCC36556 (CN), and Aspergillus fumigatus ATCC13073 (AF).
(§2) The method used to determine in vitro antifungal activity is discussed in McGinnis, M. R., Laboratory Handbook of Medical Mycology, Academic Press, New York, London, p 661 (1980); and Drouget, E.; Dupont, B.; Improvist, L.; Vivian, M. A.; and Tortorano, A. M.; "Disc Agar Diffusion and Microplate Automatized Techniques for In Vitro Evaluation of Antifungal Agents on Yeast and Sporulated Pathogenic Fungi" in In Vitro and In Vivo Evaluation of Antifungal Agents, Eds. lwata, K. and Vanden Bossche, H., Elsevier Science Publishers, New York, Oxford, p. 303 (1986).

[2] = tested on: Candida albicans ATCC10259; details: read-out: Minimum Inhibitory Concentration (MIC) CA
Protocol: as §1, §2

[3] = tested on: Cryptococcus neoformans ATCC36556; details: read-out: Minimum Inhibitory Concentration (MIC) CN
Protocol: as §1, §2

| Compound | MIC [1] | MIC [2] | MIC [3] |
| --- | --- | --- | --- |
| CC1(C)OCC(COCC2=CC=C(COCC3COC(C)(C)O3)SS2)O1 (stereo not drawn) [3,6-Bis[[(2,2-dimethyl-1,3-dioxolan-4-yl)methyloxy]methyl]-1,2-dithiin] | > 100 µg/mL | > 100 µg/mL | > 100 µg/mL |
| O=C(OCC1=CC=C(CO)SS1)c1ccccc1 [3-(Benzoyloxymethyl)-6-(hydroxymethyl)-1,2-dithiin] | 3.1 µg/mL (≈ 11.1 µM) | 6.3 µg/mL (≈ 22.5 µM) | 3.1 µg/mL (≈ 11.1 µM) |
| OCC1=CC=C(COc2cc(C(F)(F)F)ccc2Cl)SS1 [3-(Hydroxymethyl)-6-[(2-chloro-5-trifluoromethyl-phenyloxy)methyl]-1,2-dithiin] | 6.3 µg/mL (≈ 17.8 µM) | 1.6 µg/mL (≈ 4.51 µM) | 1.6 µg/mL (≈ 4.51 µM) |
| OCC1=CC=C(COc2ccccc2F)SS1 [3-(Hydroxymethyl)-6-[(2-fluorophenyloxy)methyl]-1,2-dithiin] | 3.1 µg/mL (≈ 11.5 µM) | 3.1 µg/mL (≈ 11.5 µM) | 1.6 µg/mL (≈ 5.92 µM) |
| OCC1=CC=C(COc2ccccc2C(F)(F)F)SS1 [3-(Hydroxymethyl)-6-[(2-trifluoromethylphenyloxy)methyl]-1,2-dithiin] | 50 µg/mL (≈ 156 µM) | 25 µg/mL (≈ 78 µM) | 6.3 µg/mL (≈ 19.7 µM) |
| C#Cc1cccc(OCC2=CC=C(CO)SS2)c1 [3-(Hydroxymethyl)-6-[(3-ethynylphenyloxy)methyl]-1,2-dithiin] | 6.3 µg/mL (≈ 22.8 µM) | 1.6 µg/mL (≈ 5.79 µM) | 1.6 µg/mL (≈ 5.79 µM) |
| OCC1=CC=C(COc2cccc(O)c2)SS1 [3-(Hydroxymethyl)-6-[(3-hydroxyphenyloxy)methyl]-1,2-dithiin] | > 100 µg/mL | 50 µg/mL (≈ 186 µM) | 100 µg/mL (≈ 373 µM) |
| O=c1ccc(O)nn1CC1=CC=C(CO)SS1 [3-(Hydroxymethyl)-6-[(3-hydroxypyridazin-6-one-1-yl)methyl]-1,2-dithiin] | > 100 µg/mL | > 100 µg/mL | > 100 µg/mL |
| OCC1=CC=C(COc2ccc(O)nn2)SS1 [3-(Hydroxymethyl)-6-[(3-hydroxypyridazine-6-oxy)methyl]-1,2-dithiin] | > 100 µg/mL | > 100 µg/mL | > 100 µg/mL |
| O=c1ccc([N+](=O)[O-])cn1CC1=CC=C(CO)SS1 [3-(Hydroxymethyl)-6-[(5-nitropyrid-2-one-1-yl)methyl]-1,2-dithiin] | > 100 µg/mL | > 100 µg/mL | 100 µg/mL (≈ 335 µM) |
| OCC1=CC=C(COc2ccccc2)SS1 [3-(Hydroxymethyl)-6-[(phenyloxy)methyl]-1,2-dithiin] | 25 µg/mL (≈ 99.1 µM) | 25 µg/mL (≈ 99.1 µM) | 12.5 µg/mL (≈ 49.5 µM) |
| O=c1ccccn1CC1=CC=C(CO)SS1 [3-(Hydroxymethyl)-6-[(pyrid-2-one-1-yl)methyl]-1,2-dithiin] | > 100 µg/mL | > 100 µg/mL | 12.5 µg/mL (≈ 49.3 µM) |
| OCC1=CC=C(COc2ccccn2)SS1 [3-(Hydroxymethyl)-6-[(pyridyl-2-oxy)methyl]-1,2-dithiin] | 3.1 µg/mL (≈ 12.2 µM) | 3.1 µg/mL (≈ 12.2 µM) | 3.1 µg/mL (≈ 12.2 µM) |
| OCC1=CC=C(COc2cccnc2)SS1 [3-(Hydroxymethyl)-6-[(pyridyl-3-oxy)methyl]-1,2-dithiin] | 3.1 µg/mL (≈ 12.2 µM) | 3.1 µg/mL (≈ 12.2 µM) | 1.6 µg/mL (≈ 6.32 µM) |
| CN(C)c1cccc(OCC2=CC=C(CO)SS2)c1 [3-(Hydroxymethyl)-6-[[3-(N,N-dimethylamino)phenyloxy]methyl]-1,2-dithiin] | 100 µg/mL (≈ 338 µM) | > 50 µg/mL | 50 µg/mL (≈ 169 µM) |
| CC1(C)OCC(COCC2=CC=C(CO)SS2)O1 (stereo not drawn) [3-(Hydroxymethyl)-6-[[(2,2-dimethyl-1,3-dioxolan-4-yl)methyloxy]methyl]-1,2-dithiin] | > 100 µg/mL | > 100 µg/mL | > 100 µg/mL |
| OCC1=CC=C(COCC(O)CO)SS1 (stereo not drawn) [3-(Hydroxymethyl)-6-[methyloxy(2,3-dihydroxypropane-1-yl)]-1,2-dithiin] | > 100 µg/mL | > 100 µg/mL | > 100 µg/mL |
| OCC1=CC=C(COc2nc3ccccc3nc2O)SS1 [3-(Hydroxymethyl)-6-[methyloxy[3-hydroxyquinoxalin-2-yl]]-1,2-dithiin] | 100 µg/mL (≈ 312 µM) | 50 µg/mL (≈ 156 µM) | 25 µg/mL (≈ 78 µM) |
| COC(=O)c1ccccc1OCC1=CC=C(CO)SS1 [3-(Hydroxymethyl)-6-[methyloxy[methyl benzoate-2-yl]]-1,2-dithiin] | 12.5 µg/mL (≈ 40.3 µM) | 6.3 µg/mL (≈ 20.3 µM) | 6.3 µg/mL (≈ 20.3 µM) |
| COC(=O)c1cccc(OCC2=CC=C(CO)SS2)c1 [3-(Hydroxymethyl)-6-[methyloxy[methyl benzoate-3-yl]]-1,2-dithiin] | 25 µg/mL (≈ 80.5 µM) | 3.1 µg/mL (≈ 9.99 µM) | 6.3 µg/mL (≈ 20.3 µM) |
| OCC1=CC=C(CSc2nnnn2-c2ccc(O)cc2)SS1 [3-(Hydroxymethyl)-6-[methylthio-[1-(4-hydroxyphenyl)tetrazol-5-yl]]-1,2-dithiin] | 12.5 µg/mL (≈ 35.5 µM) | 25 µg/mL (≈ 70.9 µM) | 6.3 µg/mL (≈ 17.9 µM) |
| O=[N+]([O-])c1ccc(OCC2=CC=C(CO)SS2)nc1 [3-(hydroxymethyl)-6-[(5-nitropyridyl-2-oxy)methyl]-1,2-dithiin] | 0.4 µg/mL (≈ 1.34 µM) | 0.2 µg/mL (≈ 0.67 µM) | 0.1 µg/mL (≈ 0.335 µM) |
| OCC1=CC=C(COc2ccc(-n3ccnc3)cc2)SS1 [3-(hydroxymethyl)-6-[[4-(imidazol-1-yl)phenyloxy]methyl]-1,2-dithiin] | 100 µg/mL (≈ 314 µM) | 12.5 µg/mL (≈ 39.3 µM) | 100 µg/mL (≈ 314 µM) |
| COC(=O)c1ccc(OCC2=CC=C(CO)SS2)cc1 [3-(hydroxymethyl)-6-[methyloxy[methyl benzoate-4-yl]]-1,2-dithiin] | 12.5 µg/mL (≈ 40.3 µM) | 3.1 µg/mL (≈ 9.99 µM) | 3.1 µg/mL (≈ 9.99 µM) |
| CC1(C)OCC(COCC2=CC=C(COCC(O)CO)SS2)O1 (stereo not drawn) [3-[[(2,2-Dimethyl-1,3-dioxolan-4-yl)methyloxy]methyl]-6-[methyloxy(2,3-dihydroxypropane-1-yl)]-1,2-dithiin] | > 100 µg/mL | > 100 µg/mL | > 100 µg/mL |
